Reference: US20230058134A1, “ALDOSE REDUCTASE INHIBITORS FOR THE TREATMENT OF ACUTE RESPIRATORY DISTRESS SYNDROME, ACUTE LUNG INFLAMMATION/INJURY, CARDIAC INJURY AND ANTI-VIRAL THERAPY” (Applied Therapeutics, Inc., priority 2020, published 2023)
“Also recorded” adds a separate entry of the source.

How the values were obtained:
[1] = tested on: COVID-19 with severe ARDS; assay: Treatment of critical COVID-19 patients with severe ARDS under Emergency Investigational New Drug Applications; format: in vivo, human; details: 1500 mg twice a day
Description: Five critical COVID-19 patients admitted to the intensive care unit with severe ARDS were treated with Compound A (caficrestat) 1500 mg twice a day. All patients were on 100% high flow oxygen, had failed all other available treatment options, including anti-IL^6/anti-IL-17 therapy, and were at high risk of rapid progression to mechanical ventilation. The patients were treated under Emergency Investigational New Drug Applications as the last option to prevent mortality.

[2] = tested on: COVID-19 with signs of ARDS and/or ALI; assay: Treatment of Critical COVID-19 (single-patient example written in present tense); format: in vivo; details: one patient, 1500 mg oral twice a day
COVID-19 infection = assay: Open-label prospective phase 2 study of Compound A in high risk patients hospitalized with COVID-19, with matched registry controls; details: for Median LOS (95% CI): length of hospital stay, 1500 mg twice daily up to 14 days; for Estimated difference in median LOS / Estimated difference in median LOS (95% CI): Hodges-Lehmann estimate
[3] = 10 participants, 1500 mg twice daily
[4] = eight participants who survived and were discharged

O=C(O)Cc1nn(Cc2nc3cc(C(F)(F)F)ccc3s2)c(=O)c2nccnc12 [Compound A, caficrestat]
patients recovered and discharged from the hospital ([1]; five ICU patients on 100% high flow oxygen): Four of the five
patients who died ([1]; five ICU patients, patient had a do not resuscitate order): One patient
signs of ARDS and/or ALI [2]: diminished
viral burden [2]: reduced
adverse events leading to early discontinuation of treatment (COVID-19 infection; [3]): mild-moderate grade adverse events possibly linked to study drug in three participants
safety laboratory monitoring during hospitalization (COVID-19 infection; [3]): did not demonstrate any treatment-related abnormal findings
percent mortality (COVID-19 infection; 10 participants, death during index hospitalization due to COVID-19 complications): 20%
Median LOS (95% CI) (COVID-19 infection; All Subjects, N=10): 5 (4, 29)
Estimated difference in median LOS (COVID-19 infection; All Subjects, Compound A vs Match 1 control group (N=16)): 1.5
Estimated difference in median LOS (COVID-19 infection; All Subjects, Compound A vs Match 2 control group (N=60)): 14
Median LOS (95% CI) (COVID-19 infection; Surviving Subjects, N=8): 5 (4, 35)
Estimated difference in median LOS (95% CI) (COVID-19 infection; Surviving Subjects, Compound A vs Match 1 control group (N=11)): 1 (−2, 19)
Estimated difference in median LOS (95% CI) (COVID-19 infection; Surviving Subjects, Compound A vs Match 2 control group (N=43)): 9 (0, 42)
median hospital length of stay (COVID-19 infection; [4]): 5 days
range of hospital length of stay (COVID-19 infection; [4]): 3 to 35 days
safety and tolerability (COVID-19 infection; hospitalized COVID-19 patients with diabetes mellitus and hypertension, 1500 mg twice daily): generally safe and well tolerated
participants who survived and were discharged from the hospital (COVID-19 infection; of 10 treated participants): Eight of the ten treated patients survived
progression to mechanical ventilation (COVID-19 infection; ten treated patients): None of the treated patients progressed to mechanical ventilation
mortality compared with matched control groups (COVID-19 infection; vs control group 1 (31.3%) and control group 2 (28.3%), vs non-high risk population): numerically lower; also recorded: decreased to the level observed for the non-high risk population
length of hospital stay compared with matched control groups (COVID-19 infection; vs the two matched control groups): numerically less
